pIC50: −log10 of the molar value.
The molecules below were run against PRMT5-MEP50 enzyme complex (Homo sapiens (Human), UniProt O14744) (assay: PRMT5 enzyme activity in vitro assay (methylation of histone H4R3, ELISA absorbance at 450 nm)). Conditions: SAM, histone H4 peptide, room temperature 2 hours, 8 points from 10 μM to 0.128 nM.
Assay type: biochemical
Experimental: Method for Measuring Enzyme Activity
In vitro assay: PRMT5-MEP50 enzyme complex, cofactor S-adenosylmethionine (SAM) and histone H4 peptide were reacted in vitro, and methylation of arginine (H4R3)—which is the third amino acid of histone H4—was measured in order to measure the enzyme activity of PRMT5.
Reagents: PRMT5-MEP50 enzyme complex (Catalog No. 51045), blocking buffer (52100-B), histone methyltransferase reaction buffer 2 (4×HMT assay buffer 2, Catalog No. 52170), and primary antibody (primary antibody 4-3, Catalog No. 52150) were purchased from BPS Bioscience (USA). The histone H4 peptide (1-20 amino acids) was custom made by Komabiotech (Korea) and used. S-adenosylmethionine was purchased from NEB (New England Biolabs, USA, Catalog No. B9003S). Plates for coating histone H4 peptide, washing buffer and color development reagent were purchased from the following vendors: Plate (Immobilizer™-Amino Plate, NUNC, Denmark, Catalog No. 436023), carbonate-bicarbonate buffer (Sigma-Aldrich, USA, Catalog No. C3041), washing buffer (10×TBST, Biosesang, Korea, Catalog No. T2005), TMB ELISA substrate (Abcam, UK, Catalog No. ab210902), horseradish peroxidase (HRP)-conjugated antibody (Abcam, UK, Catalog No. ab6721).
Experimental procedure: The histone H4 peptide was diluted with carbonate-bicarbonate buffer and prepared to 100 μg/mL, and then dispensed onto the plate per 100 μL and reacted at 37° C. for 1 hour. PRMT5-MEP50 enzyme complex and S-adenosylmethionine were diluted with histone methyltransferase reaction buffer to prepare 5 μg/mL and 2 μM, respectively, and then 20 μL of PRMT5-MEP50 enzyme complex and 25 μL of S-adenosylmethionine were dispensed onto the plate prepared above. 5 μL of the compound diluted with 10% dimethyl sulfoxide solution was added thereto and reacted at room temperature for 2 hours (final volume=50 μL). The concentration of the compound was diluted 1:5 from 10 μM until the lowest concentration of 0.128 nM, and 8 points were used for the test. After preparing the primary antibody by diluting 1:2000 with blocking buffer, 100 μL was added to the plate and reacted at room temperature for 1 hour. After preparing horseradish peroxidase-conjugated antibody by diluting 1:10,000 with blocking buffer, 100 μL was added to the plate and reacted at room temperature for 1 hour. 100 μL of TMB substrate was added and reacted for 3 minutes at room temperature, and 100 μL of 1 N sulfuric acid was then added to terminate the reaction. Then, the absorbance at 450 nm was measured to calculate the IC50 value of the compound. (+++: 1 to 100 nM, ++: greater than 100 to 1,000 nM, +: greater than 1,000 to 10,000 nM)

Chain of PRMT5-MEP50 enzyme complex (O14744 2-637): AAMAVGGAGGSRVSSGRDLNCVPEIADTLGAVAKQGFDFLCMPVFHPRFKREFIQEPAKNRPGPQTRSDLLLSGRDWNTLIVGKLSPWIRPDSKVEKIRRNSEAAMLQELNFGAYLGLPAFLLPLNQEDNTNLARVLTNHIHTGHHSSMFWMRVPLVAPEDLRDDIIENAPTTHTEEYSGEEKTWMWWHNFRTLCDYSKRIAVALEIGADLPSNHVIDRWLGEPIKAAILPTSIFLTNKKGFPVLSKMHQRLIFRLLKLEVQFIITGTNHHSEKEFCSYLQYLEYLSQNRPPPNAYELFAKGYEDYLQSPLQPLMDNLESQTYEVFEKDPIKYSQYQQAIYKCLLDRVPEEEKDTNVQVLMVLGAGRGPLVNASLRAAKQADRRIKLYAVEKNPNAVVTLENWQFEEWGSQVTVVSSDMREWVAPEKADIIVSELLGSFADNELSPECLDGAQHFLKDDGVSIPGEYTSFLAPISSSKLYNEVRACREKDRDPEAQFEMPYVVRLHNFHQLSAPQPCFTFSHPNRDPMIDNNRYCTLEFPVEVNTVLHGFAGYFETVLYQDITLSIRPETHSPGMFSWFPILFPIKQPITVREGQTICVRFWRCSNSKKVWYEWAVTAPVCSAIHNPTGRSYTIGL
Chain of PRMT5-MEP50 enzyme complex (Q9BQA1 2-342 partner): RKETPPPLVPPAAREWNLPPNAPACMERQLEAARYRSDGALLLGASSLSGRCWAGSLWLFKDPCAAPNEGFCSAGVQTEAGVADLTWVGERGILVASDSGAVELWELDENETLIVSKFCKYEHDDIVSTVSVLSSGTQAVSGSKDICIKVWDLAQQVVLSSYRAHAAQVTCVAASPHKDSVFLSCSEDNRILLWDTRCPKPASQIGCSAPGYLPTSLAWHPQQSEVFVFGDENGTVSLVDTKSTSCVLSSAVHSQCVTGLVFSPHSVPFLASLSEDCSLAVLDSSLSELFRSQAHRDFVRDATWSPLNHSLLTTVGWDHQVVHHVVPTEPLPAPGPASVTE

Row | SMILES | pIC50
1 | CC(=O)N1CCN(Cc2ccc3c(c2)OCCN(C[C@H](O)CN2CCc4ccccc4C2)C3=O)CC1 [Example 53, 8-[(4-acetylpiperazin-1-yl)methyl]-4-[(2R)-3-(3,4-dihydro-1H-isoquinolin-2-yl)-2-hydroxy-propyl]-2,3-dihydro-1,4-benzoxazepin-5-one] | 6.00 to 7.00
2 | CN1CCN(Cc2ccc3c(c2)OCCN(C[C@H](O)CN2CCc4ccccc4C2)C3=O)CC1 [Example 54, 4-[(2R)-3-(3,4-dihydro-1H-isoquinolin-2-yl)-2-hydroxy-propyl]-8-[(4-methylpiperazin-1-yl)methyl]-2,3-dihydro-1,4-benzoxazepin-5-one] | 7.00 to 9.00
3 | O=C1c2ccc(CN3CC4CC3CO4)cc2OCCN1C[C@H](O)CN1CCc2ccccc2C1 (stereo partly drawn) [Example 55, 4-[(2R)-3-(3,4-dihydro-1H-isoquinolin-2-yl)-2-hydroxy-propyl]-8-(2-oxa-5-azabicyclo[2.2.1]heptan-5-ylmethyl)-2,3-dihydro-1,4-benzoxazepin-5-one] | 6.00 to 7.00
4 | O=C1c2ccc(OCc3cccnc3)cc2OCCN1C[C@H](O)CN1CCc2ccccc2C1 [Example 56, 4-[(2R)-3-(3,4-dihydro-1H-isoquinolin-2-yl)-2-hydroxy-propyl]-8-(3-pyridylmethoxy)-2,3-dihydro-1,4-benzoxazepin-5-one] | 6.00 to 7.00
5 | O=C1c2ccc(OCc3ccncc3)cc2OCCN1C[C@H](O)CN1CCc2ccccc2C1 [Example 57, 4-[(2R)-3-(3,4-dihydro-1H-isoquinolin-2-yl)-2-hydroxy-propyl]-8-(4-pyridylmethoxy)-2,3-dihydro-1,4-benzoxazepin-5-one] | 7.00 to 9.00
6 | O=C1c2ccc(OCc3ccnc(F)c3)cc2OCCN1C[C@H](O)CN1CCc2ccccc2C1 [Example 58, 4-[(2R)-3-(3,4-dihydro-1H-isoquinolin-2-yl)-2-hydroxy-propyl]-8-[(2-fluoro-4-pyridyl)methoxy]-2,3-dihydro-1,4-benzoxazepin-5-one] | 7.00 to 9.00
7 | O=C1c2ccc(OCc3cc(Cl)nc(Cl)c3)cc2OCCN1C[C@H](O)CN1CCc2ccccc2C1 [Example 59, 8-[(2,6-dichloro-4-pyridyl)methoxy]-4-[(2R)-3-(3,4-dihydro-1H-isoquinolin-2-yl)-2-hydroxy-propyl]-2,3-dihydro-1,4-benzoxazepin-5-one] | 6.00 to 7.00
8 | O=C1c2ccc(OCc3ccnc(F)c3F)cc2OCCN1C[C@H](O)CN1CCc2ccccc2C1 [Example 60, 8-[(2,3-difluoro-4-pyridyl)methoxy]-4-[(2R)-3-(3,4-dihydro-1H-isoquinolin-2-yl)-2-hydroxy-propyl]-2,3-dihydro-1,4-benzoxazepin-5-one] | 6.00 to 7.00
9 | O=C1c2ccc(OCc3ccc(F)nc3)cc2OCCN1C[C@H](O)CN1CCc2ccccc2C1 [Example 61, 4-[(2R)-3-(3,4-dihydro-1H-isoquinolin-2-yl)-2-hydroxy-propyl]-8-[(6-fluoro-3-pyridyl)methoxy]-2,3-dihydro-1,4-benzoxazepin-5-one] | 6.00 to 7.00
10 | O=C1c2ccc(OCc3ccncc3F)cc2OCCN1C[C@H](O)CN1CCc2ccccc2C1 [Example 62, 4-[(2R)-3-(3,4-dihydro-1H-isoquinolin-2-yl)-2-hydroxy-propyl]-8-[(3-fluoro-4-pyridyl)methoxy]-2,3-dihydro-1,4-benzoxazepin-5-one] | 7.00 to 9.00
11 | O=C1c2ccc(OCc3ccc(F)cn3)cc2OCCN1C[C@H](O)CN1CCc2ccccc2C1 [Example 63, 4-[(2R)-3-(3,4-dihydro-1H-isoquinolin-2-yl)-2-hydroxy-propyl]-8-[(5-fluoro-2-pyridyl)methoxy]-2,3-dihydro-1,4-benzoxazepin-5-one] | 7.00 to 9.00
12 | O=C1c2ccc(OC3CCOCC3)cc2OCCN1C[C@H](O)CN1CCc2ccccc2C1 [Example 64, 4-[(2R)-3-(3,4-dihydro-1H-isoquinolin-2-yl)-2-hydroxy-propyl]-8-tetrahydropyran-4-yloxy-2,3-dihydro-1,4-benzoxazepin-5-one] | 7.00 to 9.00
13 | O=C1c2ccc(OCC3CCCCO3)cc2OCCN1C[C@H](O)CN1CCc2ccccc2C1 (stereo partly drawn) [Example 65, 4-[(2R)-3-(3,4-dihydro-1H-isoquinolin-2-yl)-2-hydroxy-propyl]-8-(tetrahydropyran-2-ylmethoxy)-2,3-dihydro-1,4-benzoxazepin-5-one] | 6.00 to 7.00
14 | O=C1c2ccc(OCC3CCCCC3)cc2OCCN1C[C@H](O)CN1CCc2ccccc2C1 [Example 66, 8-(cyclohexylmethoxy)-4-[(2R)-3-(3,4-dihydro-1H-isoquinolin-2-yl)-2-hydroxy-propyl]-2,3-dihydro-1,4-benzoxazepin-5-one] | 6.00 to 7.00
15 | O=C1c2ccc(OCC3CCCO3)cc2OCCN1C[C@H](O)CN1CCc2ccccc2C1 (stereo partly drawn) [Example 67, 4-[(2R)-3-(3,4-dihydro-1H-isoquinolin-2-yl)-2-hydroxy-propyl]-8-(tetrahydrofuran-2-ylmethoxy)-2,3-dihydro-1,4-benzoxazepin-5-one] | 6.00 to 7.00
16 | CN1CCCC(Oc2ccc3c(c2)OCCN(C[C@H](O)CN2CCc4ccccc4C2)C3=O)C1 (stereo partly drawn) [Example 68, 4-[(2R)-3-(3,4-dihydro-1H-isoquinolin-2-yl)-2-hydroxy-propyl]-8-[(1-methyl-3-piperidyl)oxy]-2,3-dihydro-1,4-benzoxazepin-5-one] | 6.00 to 7.00
17 | CCN1CCCC(Oc2ccc3c(c2)OCCN(C[C@H](O)CN2CCc4ccccc4C2)C3=O)C1 (stereo partly drawn) [Example 69, 4-[(2R)-3-(3,4-dihydro-1H-isoquinolin-2-yl)-2-hydroxy-propyl]-8-[(1-ethyl-3-piperidyl)oxy]-2,3-dihydro-1,4-benzoxazepin-5-one] | 7.00 to 9.00
18 | CC(=O)N1CCC(COc2ccc3c(c2)OCCN(C[C@H](O)CN2CCc4ccccc4C2)C3=O)CC1 [Example 70, 8-[(1-acetyl-4-piperidyl)methoxy]-4-[(2R)-3-(3,4-dihydro-1H-isoquinolin-2-yl)-2-hydroxy-propyl]-2,3-dihydro-1,4-benzoxazepin-5-one] | 6.00 to 7.00
19 | O=C1c2ccc(OCC(F)(F)F)cc2OCCN1C[C@H](O)CN1CCc2ccccc2C1 [Example 71, 4-[(2R)-3-(3,4-dihydro-1H-isoquinolin-2-yl)-2-hydroxy-propyl]-8-(2,2,2-trifluoroethoxy)-2,3-dihydro-1,4-benzoxazepin-5-one] | 6.00 to 7.00
20 | CN(C)CCOc1ccc2c(c1)OCCN(C[C@H](O)CN1CCc3ccccc3C1)C2=O [Example 72, 4-[(2R)-3-(3,4-dihydro-1H-isoquinolin-2-yl)-2-hydroxy-propyl]-8-[2-(dimethylamino)ethoxy]-2,3-dihydro-1,4-benzoxazepin-5-one] | 6.00 to 7.00
21 | O=C1c2ccc(OCCN3CCOCC3)cc2OCCN1C[C@H](O)CN1CCc2ccccc2C1 [Example 73, 4-[(2R)-3-(3,4-dihydro-1H-isoquinolin-2-yl)-2-hydroxy-propyl]-8-(2-morpholinoethoxy)-2,3-dihydro-1,4-benzoxazepin-5-one] | 6.00 to 7.00
22 | O=C1CCCN1CCOc1ccc2c(c1)OCCN(C[C@H](O)CN1CCc3ccccc3C1)C2=O [Example 74, 4-[(2R)-3-(3,4-dihydro-1H-isoquinolin-2-yl)-2-hydroxy-propyl]-8-[2-(2-oxopyrrolidin-1-yl)ethoxy]-2,3-dihydro-1,4-benzoxazepin-5-one] | 6.00 to 7.00
23 | CCN(CC)C(=O)COc1ccc2c(c1)OCCN(C[C@H](O)CN1CCc3ccccc3C1)C2=O [Example 75, 2-[[4-[(2R)-3-(3,4-dihydro-1H-isoquinolin-2-yl)-2-hydroxy-propyl]-5-oxo-2,3-dihydro-1,4-benzoxazepin-8-yl]oxy]-N,N-diethyl-acetamide] | 6.00 to 7.00
24 | O=C1CCC(Oc2ccc3c(c2)OCCN(C[C@H](O)CN2CCc4ccccc4C2)C3=O)CN1 (stereo partly drawn) [Example 76, 4-[(2R)-3-(3,4-dihydro-1H-isoquinolin-2-yl)-2-hydroxy-propyl]-8-[(6-oxo-3-piperidyl)oxy]-2,3-dihydro-1,4-benzoxazepin-5-one] | 6.00 to 7.00
25 | CC(C)(C)OC(=O)N1CCC(Oc2ccc3c(c2)OCCN(C[C@H](O)CN2CCc4ccccc4C2)C3=O)CC1 [Example 77, tert-butyl 4-[[4-[(2R)-3-(3,4-dihydro-1H-isoquinolin-2-yl)-2-hydroxy-propyl]-5-oxo-2,3-dihydro-1,4-benzoxazepin-8-yl]oxy]piperidine-1-carboxylate] | 7.00 to 9.00
26 | CC(=O)N1CCC(Oc2ccc3c(c2)OCCN(C[C@H](O)CN2CCc4ccccc4C2)C3=O)CC1 [Example 78, 8-[(1-acetyl-4-piperidyl)oxy]-4-[(2R)-3-(3,4-dihydro-1H-isoquinolin-2-yl)-2-hydroxy-propyl]-2,3-dihydro-1,4-benzoxazepin-5-one] | 7.00 to 9.00

Reference: patent US11111237B2, “Bicyclic compound and use thereof” (SK BIOPHARMACEUTICALS CO., LTD., priority 2019, dated 2021)
